Article PMC7617869, “Molecular glues that inhibit deubiquitylase activity and inflammatory signaling” (Nature Structural & Molecular Biology, 2025)
“And” between values parts separate entries of the source, which are not always exact repeats. Equal values may be shown once.

Legend:
Format in all cases: biochemical
ARISC = target: T1, ARISC (Homo sapiens, UniProt P46736+Q6UWZ7+Q9NXR7); assay: ARISC IQF DUB activity assay; settings: Fig. 1g, ARISC
T1 construct: full-length BRISC (FL), ARISC (FL); made in house; host or cells: Spodoptera frugiperda (Sf9) insect cells, MultiBac
Description: (§1) IQF assays were performed in DUB reaction buffer containing 50 mM HEPES–NaOH pH 7.0, 100 mM NaCl, 0.1 mg ml^−1 BSA, 1 mM DTT and 0.03% v/v Brij-35. […] The final concentration of BRISC WT, all BRISC mutants, HsBRISCΔLoop, MmBRISC and DrBRISCΔNΔC was 1 nM. Other enzymes were tested at the following concentrations: 5 nM ARISC (FL), 10 nM CfBRISCΔNΔC, 250 nM AMSH* (ref. [43]), 500 nM USP2 and 1 μM trypsin (Sigma, 9002-07-7). For Michaelis–Menten experiments, 1 nM BRISC with 0–1 μM IQF K63-linked diubiquitin substrate was used. Michaelis–Menten analyses and Lineweaver–Burk plots were calculated using GraphPad Prism (version 9.0).
To assess enzymatic activity, BRISC complexes were diluted to concentrations between 1 nM and 50 nM. […] Then, 20-μl enzyme reactions were carried out in 384-well black flat-bottom low-flange plates (Corning, 35373). DUB activity was measured using IQF K63-linked diubiquitin (LifeSensors, DU6303) at 50 nM. Cleaved diubiquitin was monitored by measuring fluorescence intensity (excitation, 544 nm; emission, 575 nm; dichroic mirror, 560 nm). Fluorescence intensity was measured every minute for 30 min at 30 °C. Fluorescence intensity units were plotted against time to generate a linear reaction progress curve, where the initial velocity (V0) corresponds to the gradient of the curve (typically achieved within 15 min). IC50 values were calculated using the GraphPad Prism (version 9.0) built-in dose–response equation for inhibitor concentration versus response (variable slope).

ARISC (FL) = target: T2, ARISC (FL) (Homo sapiens, UniProt P46736+Q6UWZ7+Q9NXR7); assay: In-gel deubiquitylation assay, TAMRA-labeled K63-tetraubiquitin, ARISC; settings: 10 μM or 100 μM inhibitor
T2 construct: full-length BRISC (FL), ARISC (FL); made in house; host or cells: Spodoptera frugiperda Sf9 insect cells (MultiBac)
Description: The inhibitor capzimin (Merck) was diluted in 1 mM DTT and incubated for 30 min at room temperature to reduce disulfide bonds required for inhibitor activity. […] DUBs were incubated with 750 nM TAMRA-labeled K63-tetraubiquitin (LifeSensors, SI6304T) for 10 min at 30 °C. Reactions were quenched by adding 2.5 μl of 4× SDS–PAGE loading dye (240 mM Tris-HCl pH 6.8, 40% v/v glycerol, 8% w/v SDS, 0.04% w/v bromophenol blue and 5% v/v β-mercaptoethanol). The samples were resolved on 4–12% NuPAGE Bis–Tris gels (Thermo Fisher Scientific). Gels were scanned using an iBright FL 1500 (Thermo Fisher Scientific) (excitation, 515–545 nm; emission, 568–617 nm; exposure, 500 ms).

BRISC = target: T3, BRISC (Homo sapiens, UniProt P46736+Q15018+Q9NXR7); assay: Michaelis–Menten analysis of BRISC inhibition
T3 construct: made in house; host or cells: Spodoptera frugiperda (Sf9) insect cells, MultiBac
Description: as §1

SMILES: O=C(NC1C2CNCC21)c1nn(C(=O)c2c(Cl)cccc2Cl)cc1NC(=O)c1c(Cl)cccc1Cl (stereo not shown) [FX-171-C]
- Normalised V0 (ARISC; FX-171-C 0.02 μM): 1.1225 and 0.966 and 1.021
- Normalised V0 (ARISC; FX-171-C 0.0399999 μM): 1.087 and 0.9846 and 0.8911
- Normalised V0 (ARISC; FX-171-C 0.0599997 μM): 1.028 and 0.9352 and 0.9674
- Normalised V0 (ARISC; FX-171-C 0.0799994 μM): 1.023 and 0.9476 and 0.8942
- Normalised V0 (ARISC; FX-171-C 0.119998 μM): 0.9409 and 0.9459 and 1.0338
- Normalised V0 (ARISC; FX-171-C 0.199996 μM): 1.019 and 0.9437 and 0.9099
- Normalised V0 (ARISC; FX-171-C 0.799936 μM): 0.9597 and 0.9609 and 1.054
- Normalised V0 (ARISC; FX-171-C 1.25984 μM): 0.9789 and 0.9339 and 0.958
- Normalised V0 (ARISC; FX-171-C 1.9996 μM): 1.042 and 0.9796 and 1.015
- Normalised V0 (ARISC; FX-171-C 3.159 μM): 0.8585 and 0.91 and 0.9812
- Normalised V0 (ARISC; FX-171-C 5.19739 μM): 0.9682 and 0.9452 and 1.064
- Normalised V0 (ARISC; FX-171-C 7.99364 μM): 0.9509 and 0.8953 and 0.9841
- Normalised V0 (ARISC; FX-171-C 12.7839 μM): 1.013 and 0.9875 and 0.9597
- Normalised V0 (ARISC; FX-171-C 19.96 μM): 0.9552 and 0.8845 and 0.9378
- Normalised V0 (ARISC; FX-171-C 31.4999 μM): 0.9912 and 0.9889 and 0.9686
- Normalised V0 (ARISC; FX-171-C 50.147 μM): 0.9345 and 0.8543 and 0.967
- Normalised V0 (ARISC; FX-171-C 79.7601 μM): 0.9819 and 0.9178 and 0.8968
- Normalised V0 (ARISC; FX-171-C 125.99 μM): 0.9989 and 0.9716 and 0.9683
- Normalised V0 (ARISC; FX-171-C 199.922 μM): 0.744 and 0.5764 and 0.798
- inhibition of ARISC activity against tetraubiquitin (ARISC (FL)): did not inhibit
- Initial velocity (FU/min) (BRISC; di-Ub-TAMRA 31.2 nM, inhibitor 48 nM): 121.5 FU/min and 126.3 FU/min and 146.6 FU/min
- Initial velocity (FU/min) (BRISC; di-Ub-TAMRA 31.2 nM, inhibitor 195 nM): 104.4 FU/min and 118.9 FU/min and 118.7 FU/min
- Initial velocity (FU/min) (BRISC; di-Ub-TAMRA 31.2 nM, inhibitor 781 nM): 76.24 FU/min and 88.16 FU/min and 98.75 FU/min
- Initial velocity (FU/min) (BRISC; di-Ub-TAMRA 31.2 nM, inhibitor 3.12 μM): 58.53 FU/min and 46.27 FU/min and 64.26 FU/min
- Initial velocity (FU/min) (BRISC; di-Ub-TAMRA 31.2 nM, inhibitor 12.5 μM): 38.22 FU/min and 44.65 FU/min and 65.69 FU/min
- Initial velocity (FU/min) (BRISC; di-Ub-TAMRA 62.5 nM, inhibitor 48 nM): 182.7 FU/min and 137.5 FU/min and 123.2 FU/min
- Initial velocity (FU/min) (BRISC; di-Ub-TAMRA 62.5 nM, inhibitor 195 nM): 166.2 FU/min and 105.9 FU/min and 106.4 FU/min
- Initial velocity (FU/min) (BRISC; di-Ub-TAMRA 62.5 nM, inhibitor 781 nM): 126.7 FU/min and 95.78 FU/min and 99.98 FU/min
- Initial velocity (FU/min) (BRISC; di-Ub-TAMRA 62.5 nM, inhibitor 3.12 μM): 70.11 FU/min and 76.58 FU/min and 69.67 FU/min
- Initial velocity (FU/min) (BRISC; di-Ub-TAMRA 62.5 nM, inhibitor 12.5 μM): 34.93 FU/min and 52.19 FU/min and 58.9 FU/min
- Initial velocity (FU/min) (BRISC; di-Ub-TAMRA 62.5 nM, inhibitor 50 μM): 28.22 FU/min and 40.49 FU/min and 46.74 FU/min
- Initial velocity (FU/min) (BRISC; di-Ub-TAMRA 125 nM, inhibitor 48 nM): 467.2 FU/min and 386.6 FU/min and 434.5 FU/min
- Initial velocity (FU/min) (BRISC; di-Ub-TAMRA 125 nM, inhibitor 195 nM): 414.6 FU/min and 331.3 FU/min and 418.4 FU/min
- Initial velocity (FU/min) (BRISC; di-Ub-TAMRA 125 nM, inhibitor 781 nM): 304.6 FU/min and 276.4 FU/min and 303.4 FU/min
- Initial velocity (FU/min) (BRISC; di-Ub-TAMRA 125 nM, inhibitor 3.12 μM): 173.8 FU/min and 175.1 FU/min and 170.4 FU/min
- Initial velocity (FU/min) (BRISC; di-Ub-TAMRA 125 nM, inhibitor 12.5 μM): 92.02 FU/min and 100.3 FU/min and 111.4 FU/min
- Initial velocity (FU/min) (BRISC; di-Ub-TAMRA 125 nM, inhibitor 50 μM): 36.3 FU/min and 46.67 FU/min and 63.46 FU/min
- Initial velocity (FU/min) (BRISC; di-Ub-TAMRA 250 nM, inhibitor 48 nM): 794.1 FU/min and 722.2 FU/min and 770.5 FU/min
- Initial velocity (FU/min) (BRISC; di-Ub-TAMRA 250 nM, inhibitor 195 nM): 732.8 FU/min and 688 FU/min and 641.2 FU/min
- Initial velocity (FU/min) (BRISC; di-Ub-TAMRA 250 nM, inhibitor 781 nM): 548.6 FU/min and 487.2 FU/min and 518.3 FU/min
- Initial velocity (FU/min) (BRISC; di-Ub-TAMRA 250 nM, inhibitor 3.12 μM): 309.4 FU/min and 322.6 FU/min and 305.6 FU/min
- Initial velocity (FU/min) (BRISC; di-Ub-TAMRA 250 nM, inhibitor 12.5 μM): 178.9 FU/min and 174 FU/min and 179.5 FU/min
- Initial velocity (FU/min) (BRISC; di-Ub-TAMRA 250 nM, inhibitor 50 μM): 67.25 FU/min and 84.89 FU/min and 62.1 FU/min
- Initial velocity (FU/min) (BRISC; di-Ub-TAMRA 500 nM, inhibitor 48 nM): 1729 FU/min and 1553 FU/min and 1273 FU/min
- Initial velocity (FU/min) (BRISC; di-Ub-TAMRA 500 nM, inhibitor 195 nM): 1442 FU/min and 1370 FU/min and 1434 FU/min
- Initial velocity (FU/min) (BRISC; di-Ub-TAMRA 500 nM, inhibitor 781 nM): 1085 FU/min and 985.1 FU/min and 1129 FU/min
- Initial velocity (FU/min) (BRISC; di-Ub-TAMRA 500 nM, inhibitor 3.12 μM): 624.9 FU/min and 642.2 FU/min and 551.1 FU/min
- Initial velocity (FU/min) (BRISC; di-Ub-TAMRA 500 nM, inhibitor 12.5 μM): 332.6 FU/min and 297.9 FU/min and 255.2 FU/min
- Initial velocity (FU/min) (BRISC; di-Ub-TAMRA 500 nM, inhibitor 50 μM): 109.3 FU/min and 143.3 FU/min and 196.9 FU/min
- Initial velocity (FU/min) (BRISC; di-Ub-TAMRA 1000 nM, inhibitor 48 nM): 2734 FU/min and 2460 FU/min and 2836 FU/min
- Initial velocity (FU/min) (BRISC; di-Ub-TAMRA 1000 nM, inhibitor 195 nM): 2231 FU/min and 2296 FU/min and 2566 FU/min
- Initial velocity (FU/min) (BRISC; di-Ub-TAMRA 1000 nM, inhibitor 781 nM): 1629 FU/min and 1647 FU/min and 1858 FU/min
- Initial velocity (FU/min) (BRISC; di-Ub-TAMRA 1000 nM, inhibitor 3.12 μM): 1134 FU/min
- Initial velocity (FU/min) (BRISC; di-Ub-TAMRA 1000 nM, inhibitor 50 μM): 213.3 FU/min and 360.7 FU/min and 415.9 FU/min
- mode of inhibition (BRISC; enzyme activity at different substrate concentrations): not competitive inhibitors
